Here are results for 18 compounds from PubChem BioAssay (NCI).

Holding throughout (experiment): NCI tumour cell line growth inhibition, 48 h
Test [1] relates to MDA-N.
The subject of test [2] is DLD-1 colon.
Test [3] deals with DMS 273 small cell lung.
Test [4] has as its system HOP-18 NSCLC.
For test [5], the system named is M19-MEL melanoma.
For test [6], the system named is RXF-631 renal.
Test [7] relates to SNB-78 CNS.
Test [8] has as its system KM20L2 colon.
In test [9] the test system is XF 498 CNS.

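Each compound was tested at five concentrations against cells in 96-well plates for 48 hours. The concentration for 50% growth inhibition is given as GI50. TGI is the concentration that stops growth completely.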

As to `O=C(O)/C(=C\c1ccncc1)c1cccc2ccccc12`, the TGI in test [1] was over 100 µM.
Consider `CCCCCCCCCCC(C)CCCCCCC(=O)O` (stereo not given), for which the TGI in test [2], in test [3], in test [4], in test [5], in [6] and in test [7] was over 100 µM throughout.
In [1], `Cc1coc2c1C(OC(=O)C(C)C)C1(C)C(C)CCC(O)C1C2=O` (stereo not given) gave a TGI of over 100 µM.
Compound `C=CC1=C(C)C2=NC1=CC1=NC(=C(CC)/C1=C\O)C=C1N=C3C(=C1C)C(=O)[C@H](C(=O)OC)C3=C1NC(=C2)[C@@H](C)[C@@H]1CCC(=O)O` gave a TGI in test [1] of over 100 µM.
Consider `O=C(CC/C(CC(=O)c1ccc(Br)cc1)=N\O)Nc1ccc(Cl)c(Cl)c1`, for which the TGI in test [2], in test [3], in [4], in [8], in [5] and in [7] was over 100 µM in each case.
Compound `O=C(O)C(Oc1nc(=S)[nH]c(=S)[nH]1)(c1ccc(Cl)cc1)c1ccc(Cl)cc1` displayed a TGI in [1] of over 100 µM.
`CCC[CH2][Sn]1([CH2]CCC)[O]CC(C)[O]1` (stereo not given): the GI50 in test [2] was 1.47 µM; in test [3] it was 1.26 µM; in test [8], 2.53 µM; in test [5] it was 0.803 µM; in [7], 0.301 µM; in test [9], 0.99 µM. Further, the TGI in [2] worked out at 3.32 µM; in test [3] it was 2.66 µM; in test [8] it was 6.86 µM; in test [5] it was 2.23 µM; in [7] it was 0.909 µM; in [9], 2.33 µM.
For the compound `Brc1cc2c(cc1Br)CN(c1ccccc1)C2`, the TGI in test [2], in test [3], in [8], in test [5], in [7] and in test [9] was over 100 µM each time.
Consider `Cc1cccc2c(O)cc(=O)oc12`, for which the TGI in test [2], in [4], in [8], in [5], in [7] and in test [9] was over 100 µM in each case.
For `CC(=C/c1ccccc1)/C=C1/NC(=S)N(/C=C2\C(=O)Oc3ccccc3C2=O)C1=O`, the TGI in test [1] was over 100 µM.
With `O=C1/C(=C/c2ccc(Br)cc2)CCC/C1=C\c1ccc(Br)cc1`, the TGI was 31.6 µM in [2]; 15.7 µM in test [3]; 78.6 µM in test [4]; over 100 µM in test [8]; 32.9 µM in [5]; 18.1 µM in [6]. Further, the TGI in test [7] was determined as 58.3 µM; in [9], 52 µM.
Consider `Cc1ccc(C(=O)CC2=Nc3nnc(CCCCCCCc4nnc5n4C(=O)C(CC(=O)c4ccc(C)cc4)=N5)n3C2=O)cc1`, for which the TGI in [2], in test [4], in [8], in test [5], in [6] and in [9] was over 100 µM each time.
Take `COC(=O)c1nn(C(=N)c2ccc(Cl)cc2)c2c1CCC2`: the TGI in [2], in [3], in test [8], in test [5], in [7] and in test [9] was over 100 µM in each case.
For `CC(=O)[CH-]C(C)=O.CC(=O)[CH-]C(C)=O.CC[O-].CC[O-].[Ti+4]`, in test [2], the GI50 is over 100 µM and the TGI was over 100 µM.
Consider `NNC(=O)C(=O)N/N=C(\CCC(=O)Nc1ccc(Cl)cc1)Cc1nc2ccccc2s1`, for which the TGI in test [3] was 67.8 µM; in [4], 38.7 µM; in [8], over 100 µM; in test [5] it was 36.9 µM; in test [7], over 100 µM.
`CN(C)C(=O)Oc1c(-c2ccccc2)c(=O)n2c3ccccc3n3c(=O)n(C)c(=O)c1c23`: the TGI in test [2], in [3], in test [4], in test [5], in test [6] and in test [7] was over 100 µM in each case. In test [9], this compound displayed a TGI of over 100 µM.
For `CCN(CC)C(=S)[S][Bi]([S]C(=S)N(CC)CC)[S]C(=S)N(CC)CC`, the GI50 was 0.0404 µM in test [2]; 0.056 µM in test [3]; 0.202 µM in test [4]; 0.128 µM in test [8]; 0.162 µM in test [5]; 0.728 µM in [1]. In addition, in [7], the GI50 is 0.598 µM. The TGI was determined as 0.208 µM in test [2]; 0.221 µM in test [3]; 0.375 µM in test [4]; 1.23 µM in test [8]; 0.314 µM in test [5]; 2.04 µM in test [1]. The compound also came in with a TGI in test [7] of 2.13 µM.
With `C/C(=N\NC(=S)N(C)C)c1ccccn1`, the GI50 in test [1] is 0.178 µM.
